In patent US20140357706A1, “Stearate Compounds” (THE UAB RESEARCH FOUNDATION, priority 2011, published 2014):

Experiments:
3T3L1 preadipocytes = assay: Cell death and apoptosis of 3T3L1 preadipocytes (trypan blue, LDH, flow cytometry); format: cell-based, mouse; conditions: 50 μM, vs control
Procedure: 50 μM of stearate, oleate or linoleate was used to treat 3T3L1 cells as this concentration is centered within the normal range for non-esterified stearate in the plasma of humans. Stearate, oleate, or linoleate was loaded onto fatty acid free BSA according to the method reported by Spector and Hoak (Spector and Hoak, 1969). Briefly, stearate (0.5 g) was dissolved in chloroform (100 mL) and mixed well with 10 g diatomaceous earth in a 1 liter flask. The mixture was stirred and dried under nitrogen until powder. Fatty acid free BSA (1 g) was dissolved in 100 mL with DMEM without phenol red and mixed with 3 g of the stearate/diatomaceous earth mixture and stirred for 30 minutes. The stearate/BSA solution was filtered through a 0.45 μm filter, and adjusted to pH 7.4. The concentration of stearate in the solution was detected by use of a NEFA C kit. Oleic and linoleate were loaded in the same way. […] Before the treatment with fatty acid, 3T3L1 preadipocytes were grown to 100%, and were starved in 2% FBS medium for 24 hours.
After treatment, 3T3L1 cells were harvested, washed with cold PBS, and then resuspended in 100 μl annexin-binding buffer (50 mM HEPES, 700 mM NaCl, 12.5 mM CaCl2, pH 7.4). Cell density was determined, and the cells were diluted to 10^6 cells. Then 5μL of Alex Fluo 488 annexin V and 1 μL propidium iodide (PI) were added. Cells were gently oscillated and incubated for 15 min at room temperature. After adding 400 μL of binding buffer to each tube, cells were kept on ice and analyzed by flow cytometry within 1 hour. Cells that stained positive for Alex Fluo 488 annexin V and negative for PI were considered to be apoptotic. Cells that stained positive for both Alex Fluo 488 annexin V and PI were considered either in the end stage of apoptosis, or necrosis. Cells that stained negative for both Alex Fluo 488 annexin V and PI were considered alive and not undergoing measurable apoptosis. A BD LSR II flow cytometer from Becton Dickinson was used in all flow experiments and the data were analyzed with BD FACSDiva™ software V.6.1.3.
Lactate dehydrogenase (LDH) release was measured using a cytotoxicity detection kit, according to the manufacture's protocol. After 3T3L1 cells were treated, 1 ml of cell culture medium was removed and centrifuged. The supernatant was retained for assaying. For determinations, 100 μl of LDH assay reagent was added to 100 μl of supernatant and incubated for 30 min at room temperature in the dark. Absorbance was measured at 490 nm. Background release from culture medium alone was subtracted before reporting. Maximum release was measured after adding 2% Triton X-100 to untreated cells.
After treatment, 3T3L1 cells were harvested and stained with 0.4% trypan blue solution. Cells in the four corners of the grid were counted under a conventional bright field binocular microscope.

[1] = test system: visceral adipocytes from ApoE knockout mice; assay: Expression of cIAP2, Bcl-2 and Bax in visceral adipocyte cultures; format: cell-based; conditions: 50 μM fatty acid; vs no additional fatty acid
Procedure: It was hypothesized that stearate induces apoptosis in visceral adipocytes by at least one of the following mechanisms: inhibition of cIAP2, activation of Bcl-2, and activation of BAX. […] Six cultures were exposed to each fatty acid or no fatty acid. The expression of cIAP2, Bcl-2, and Bax was measured in each culture. […] By decreasing levels of the cIAP2 and/or Bcl-2 polypeptides and increasing expression of the Bax polypeptide, stearate administration may lead to an increase in cellular apoptotic activity (such as but not limited to the visceral fat tissues). Without wishing to be bound by any given hypothetical model, it is proposed that this reduction in cIAP2 expression and this increase in Bax expression (independently or in combination) is responsible for the relative decrease in visceral fat tissue that is observed when animals are given a diet that is high in stearate.

3T3L1 cells = assay: 3T3L1 cell differentiation (oil red O staining); format: cell-based, mouse; conditions: 50 μM during differentiation
Procedure: 3T3L1 mouse fibroblast cells (ATCC, CL-173™) were maintained according to the manufacture's protocol, in Dulbecco's modified eagle's medium (DMEM) containing 10% Fetal Bovine Serum and antibiotics (M1 medium). Adipocyte differentiation was performed according to standard procedures (42). Briefly, the 3T3L1 fibroblasts were seeded at 30% confluence and allowed to grow to near 100% confluence. On the day after reaching maximum confluence, conversion was induced by replacing the M1 medium with M1 medium containing insulin (5 μg/ml), dexamethasone (0.25 μM), and 3-isobutyl-1-methyl-xanthine (0.5 mM). After 2 days, the cells were changed to M1 medium with insulin (5 μg/ml) for an additional 2 days. […]
50 μM of stearate, oleate or linoleate was used to treat 3T3L1 cells as this concentration is centered within the normal range for non-esterified stearate in the plasma of humans. […] The concentration of stearate in the solution was detected by use of a NEFA C kit. […]
Cellular lipids were stained with oil red O. Briefly, identical numbers of 3T3L1 cells were placed in 6-well plates, cultured and converted to adipocytes as described above. […] 200 cells were counted under the microscope in each sample, and the percentage of converted adipocytes was calculated. […] The oil red O was then eluted with 1 ml 100% isopropanol, and the OD was measured at 520 nm in a spectrophotometer.

Q: How did the “Percentage of dead cells (trypan blue)” value (3T3L1 preadipocytes; 48 hour treatment) turn out when `CCCCCCCCCCCCCCCCCC(=O)O` [stearate, Stearic acid] was run?
A: significantly increased

Q: And the “Dead cells (flow cytometry)” value (3T3L1 preadipocytes; 48 hours)?
A: increase

Q: And the “Cytotoxicity (lactate dehydrogenase)” value (3T3L1 preadipocytes; after 24 hours)?
A: significantly increased

Q: What about the “Apoptotic cells (flow cytometry)” value (3T3L1 preadipocytes) of the same compound?
A: significantly increased

Q: What about the “Expression of Bax” value [1] of the same compound?
A: increases

Q: And the “Expression of cIAP2” value [1]?
A: reduces

Q: What about the “Oil red O eluted, OD value” (3T3L1 cells) of the same compound?
A: no difference

Q: What about the “Percentage of differentiated adipocytes” value (3T3L1 cells; vs control) of the same compound?
A: no significant difference
